Experiments:
[1] = Non-competitive antagonist activity at human CB2R expressed in CHO cell membranes assessed as N-cycloheptyl-1,2-dihydro-1-(4-fluorobenzyl)-6-methyl-2-oxo-5-phenyl-pyridine-3-carboxamide EC50 at 300 nM preincubated with compound for 30 mins followed by GTPgammaS addition and measured after 90 mins by [35S]GTPgammaS assay (Rvb = 19.4 nM)
[2] = Competitive antagonist activity at human CB2R expressed in CHO cell membranes assessed as rightward shift of N-cycloheptyl-1,2-dihydro-5-bromo-1-(4-fluoro benzyl)-6-methyl-2-oxo-pyridine-3-carboxamide-induced GTPgammaS binding by measuring N-cycloheptyl-1,2-dihydro-5-bromo-1-(4-fluoro benzyl)-6-methyl-2-oxo-pyridine-3-carboxamide EC50 at 300
[3] = Competitive antagonist activity at human CB2R expressed in CHO cell membranes assessed as rightward shift of N-cycloheptyl-1,2-dihydro-5-bromo-1-(4-fluoro benzyl)-6-methyl-2-oxo-pyridine-3-carboxamide-induced GTPgammaS binding by measuring N-cycloheptyl-1,2-dihydro-5-bromo-1-(4-fluoro benzyl)-6-methyl-2-oxo-pyridine-3-carboxamide EC50 at 100
[4] = Non-competitive antagonist activity at human CB2R expressed in CHO cell membranes assessed as N-cycloheptyl-1,2-dihydro-1-(4-fluorobenzyl)-6-methyl-2-oxo-5-phenyl-pyridine-3-carboxamide EC50 at 1000 nM preincubated with compound for 30 mins followed by GTPgammaS addition and measured after 90 mins by [35S]GTPgammaS assay (Rvb = 19.4 nM)
[5] = Competitive antagonist activity at human CB2R expressed in CHO cell membranes assessed as rightward shift of N-cycloheptyl-1,2-dihydro-5-bromo-1-(4-fluoro benzyl)-6-methyl-2-oxo-pyridine-3-carboxamide-induced GTPgammaS binding by measuring N-cycloheptyl-1,2-dihydro-5-bromo-1-(4-fluoro benzyl)-6-methyl-2-oxo-pyridine-3-carboxamide EC50 at 1000
[6] = Non-competitive antagonist activity at human CB2R expressed in CHO cell membranes assessed as N-cycloheptyl-1,2-dihydro-1-(4-fluorobenzyl)-6-methyl-2-oxo-5-phenyl-pyridine-3-carboxamide EC50 at 100 nM preincubated with compound for 30 mins followed by GTPgammaS addition and measured after 90 mins by [35S]GTPgammaS assay (Rvb = 19.4 nM)

For `COc1ccc(-c2cc(C(=O)NC3CCCCCC3)c(=O)n(Cc3ccc(F)cc3)c2C)cc1`, the EC50 [1] was 62 nM, the EC50 [2] was 192 nM and the EC50 [3] was 81 nM. For the same compound, the EC50 [4] was 103 nM, the EC50 [5] was 711 nM and the EC50 [6] was 102 nM.

— BindingDB's records for doi:10.1016/j.ejmech.2020.112858 (University of Pisa, 2020)
